{"source": "patent US7560102B2", "about": "“Method for reducing neuronal degeneration so as to ameliorate the effects of injury or disease” (Yeda Research and Development Co., Ltd, priority 1998, dated 2009)", "molecules": {"B1": {"name": "OVA: non-self antigen ovalbumin (Sigma) fed to control rats (protein, UniProt P01012 2-386, looked up)", "Ovalbumin": "GSIGAASMEFCFDVFKELKVHHANENIFYCPIAIMSALAMVYLGAKDSTRTQINKVVRFDKLPGFGDSIEAQCGTSVNVHSSLRDILNQITKPNDVYSFSLASRLYAEERYPILPEYLQCVKELYRGGLEPINFQTAADQARELINSWVESQTNGIIRNVLQPSSVDSQTAMVLVNAIVFKGLWEKAFKDEDTQAMPFRVTEQESKPVQMMYQIGLFRVASMASEKMKILELPFASGTMSMLVLLPDEVSGLEQLESIINFEKLTEWTSSNVMEERKIKVYLPRMKMEEKYNLTSVLMAMGITDVFSSSANLSGISSAESLKISQAVHAAHAEINEAGREVVGSAEAGVDAASVSEEFRADHPFLFCIKHIATNAVLFFGRCVSP"}}, "key": {"[1]": {"system": "retinal ganglion cells (RGCs)", "assay": "Optic nerve crush injury after immunization with MOG p35-55, retrograde labeling of RGCs", "format": "in vivo, rat", "details": "50 μg/animal with IFA intradermally in footpads ten days prior to crush; two weeks after injury", "description": "FIG. 10 is a graph illustrating inhibition of secondary degeneration after optic nerve crush injury in adult rats. See text, Example 3, for experimental details. Rats were injected intradermally through the footpads with a 21-mer peptide based on MOG amino acid residues 35-55 (MOG p35-55) (([…], chemically synthesized at the Weizmann Institute of Science, Rehovot, Israel) or PBS ten days prior to optic nerve crush injury or MOG p35-55 in the absence of crush injury. MOG p35-55 was administered with IFA. Surviving optic nerve fibers were monitored by retrograde labeling of RGCs. The number of RGCs in rats injected with PBS or MOG p35-55 was expressed as a percentage of the total number of neurons in rats injected with MOG p35-55 in the absence of crush injury.\nRats were injected intradermally in the footpads with MOG p35-55 (50 μg/animal) and IFA, or PBS, ten days prior to optic nerve crush injury. RGCs were assessed two weeks after injury using retrograde labeling as described above. The number of RGCs in rats injected with PBS or MOG p35-55 was expressed as a percentage of the total number of neurons in rats injected with MOG p35-55 in the absence of crush injury."}, "contused spinal cord": {"system": "contused spinal cord", "assay": "Spinal cord contusion, post-traumatic immunization with Nogo p472, BBB hindlimb motor score", "format": "in vivo, SPD rats"}, "[2]": {"system": "retinal ganglion cells (RGCs)", "assay": "Optic nerve crush injury after oral MBP, retrograde labeling of RGCs", "format": "in vivo, Lewis rats", "details": "fed antigen from ten days before mild crush injury (FIG. 14)", "protocol": "MBP (Sigma, Israel) (1 mg in 0.5 ml saline) was administered orally to adult rats by gavage using a blunt needle. MBP was administered 5 times, i.e., every third day beginning two weeks prior to optic nerve crush injury. Surviving optic nerve fibers were monitored by retrograde labeling of RGCs. The number of RGCs in treated rats was expressed as a percentage of the total number of neurons in untreated rats following the injury.\nLewis rats were fed 1 mg MBP daily, or every other day, or 4 times a day at two-hour intervals for five consecutive days. Control animals were given PBS or the non-self antigen OVA Sigma, Israel). Ten days after the start of MBP ingestion, the right optic nerves were subjected to a calibrated mild crush injury. Two weeks later the RGCs were retrogradely labelled by application of the fluorescent lipophilic dye 4-Di-10-Asp(Molecular Probes Europe BV, Netherlands), distally to the site of injury, as described. […] Six days after dye application, the retina was detached from the eye, prepared as a flattened whole mount in 4% paraformaldehyde solution, and examined for labeled RGCs by fluorescence microscopy. RGCs were counted from three different regions in the retina. The results are expressed as normalized percentage of each retina to untreated injured animal mean of the same experiment. […]"}}, "data": [{"molecule": "MOG p35-55: 21-mer peptide based on amino acids 35-55 of MOG, chemically synthesized, given with IFA (MEVGWYRSPFSRVVHLYRNGK; given with IFA; UniProt Q61885 63-83, looked up, fragment)", "values": [{"measurement": "number of labeled RGCs compared to animals receiving PBS", "setting": "[1]", "value": "about 12.5 fold"}]}, {"molecule": "p472: 18-mer peptide, residues 623-640 of rat Nogo-A (SEQ ID NO:19), emulsified in CFA (SYDSIKLEPENPPPYEEA; emulsified in CFA; listed as Rattus norvegicus)", "values": [{"measurement": "overall functional recovery compared to control rats (PBS in CFA or PBS only)", "setting": "contused spinal cord; 100 μg/rat in CFA s.c. after contusion, female and male rats, P<0.01", "value": "significantly improved"}, {"measurement": "day from which hind limb locomotion was significantly better than PBS-treated controls", "setting": "contused spinal cord; female rats, 50 mm, boosted one week after injury", "value": 25, "unit": "days"}, {"measurement": "day after injury from which locomotor performance was significantly better than PBS+CFA-treated controls", "setting": "contused spinal cord; male rats", "value": 11, "unit": "days"}]}, {"molecule": "B1", "values": [{"measurement": "number of surviving RGCs two weeks after optic nerve injury vs control group", "setting": "[2]", "value": "ns"}]}]}
